Data: ChEMBL document CHEMBL5463729, “Data for DCP probe BAY 1753011” (2023)
Each block holds one compound with its values, some of them ahead of it.

Legend:
[1] = molecular target: Cyclin-dependent kinase 5/CDK5 activator 1 (Homo sapiens) (UniProt Q00535+Q15078); assay: Inhibition of CDK5/p25(h) at 10.0 µM in the Eurofins Kinase panel; assay type: protein-complex assay; settings: Compound concentration 10.0 uM
[2] = molecular target: Fibroblast growth factor receptor 3 (Homo sapiens) (UniProt P22607); assay: Inhibition of FGFR3(h) at 10.0 µM in the Eurofins Kinase panel; settings: Compound concentration 10.0 uM
[3] = molecular target: TRAF2 and NCK-interacting protein kinase (Homo sapiens) (UniProt Q9UKE5); assay: Inhibition of TNIK(h) at 10.0 µM in the Eurofins Kinase panel; settings: Compound concentration 10.0 uM
[4] = molecular target: Progesterone receptor (Homo sapiens) (UniProt P06401); settings: Compound concentration 10.0 uM
[5] = molecular target: Tyrosine-protein kinase Lck (Homo sapiens) (UniProt P06239); assay: Inhibition of Lck(h) at 10.0 µM in the Eurofins Kinase panel; settings: Compound concentration 10.0 uM
[6] = molecular target: Tyrosine-protein kinase Fgr (Homo sapiens) (UniProt P09769); assay: Inhibition of Fgr(h) at 10.0 µM in the Eurofins Kinase panel; settings: Compound concentration 10.0 uM
[7] = molecular target: Cannabinoid receptor 1 (Homo sapiens) (UniProt P21554); assay: Inhibition of Cannabinoid CB1 at compound concentration of 10.0 uM in the Eurofins-Panlabs radioligand binding assay (Eurofins_assay_217050); parameters: ligand concentration 2 nM; settings: Compound concentration 10.0 uM
[8] = molecular target: B1 bradykinin receptor (Homo sapiens) (UniProt P46663); settings: Compound concentration 10.0 uM
[9] = molecular target: Tyrosine-protein kinase Fes/Fps (Homo sapiens) (UniProt P07332); assay: Inhibition of Fes(h) at 10.0 µM in the Eurofins Kinase panel; settings: Compound concentration 10.0 uM
[10] = molecular target: Hepatocyte growth factor receptor (Homo sapiens) (UniProt P08581); assay: Inhibition of Met(h) at 10.0 µM in the Eurofins Kinase panel; settings: Compound concentration 10.0 uM
Rattus norvegicus = species on record: Rattus norvegicus; settings: Compound concentration 10.0 uM
Vasopressin V2 receptor = Vasopressin V2 receptor (Homo sapiens, UniProt P30518); assay: Inhibition of Vasopressin V2 at 10 µM in the Eurofins-Panlabs radioligand binding assay (Eurofins_assay_287610); parameters: ligand concentration 4 nM; settings: Compound concentration 10.0 uM
[11] = molecular target: Tyrosine-protein kinase Fer (Homo sapiens) (UniProt P16591); assay: Inhibition of Fer(h) at 10.0 µM in the Eurofins Kinase panel; settings: Compound concentration 10.0 uM
[12] = molecular target: voltage-gated sodium channel, site 2 (Rattus norvegicus, UniProt F1LQQ7+O08562+O88420+O88457+P04774+P04775+P08104+P15389+P15390+Q62968); assay: Inhibition of Sodium Channel, Site 2 at 10 µM in the Eurofins-Panlabs radioligand binding assay (Eurofins_assay_279510); assay type: protein assay; parameters: ligand concentration 5 nM, non-specific ligand with concentration 100 µM Veratridine, incubation time 60 min, incubation temperature 37 °C; settings: male, Wistar, rat whole brain (except cerebellum) membranes, probe [3H] Batrachotoxinin, compound concentration 10 uM
[13] = molecular target: RAC-alpha serine/threonine-protein kinase (Homo sapiens) (UniProt P31749); assay: Inhibition of PKBalpha(h) at 10.0 µM in the Eurofins Kinase panel; settings: Compound concentration 10.0 uM
[14] = molecular target: Receptor tyrosine-protein kinase erbB-2 (Homo sapiens) (UniProt P04626); assay: Inhibition of Protein Tyrosine Kinase, ERBB2 (HER2) at 10 µM in the Eurofins-Panlabs enzyme assay (Eurofins_assay_174020); parameters: substrate with concentration; settings: Compound concentration 10.0 uM
[15] = molecular target: Prostaglandin E2 receptor EP4 subtype (Homo sapiens) (UniProt P35408); assay: Inhibition of Prostanoid EP4 at 10 µM in the Eurofins-Panlabs radioligand binding assay (Eurofins_assay_268420); parameters: ligand concentration 1 nM; settings: Compound concentration 10.0 uM
[16] = molecular target: Kappa-type opioid receptor (Homo sapiens, UniProt P41145); assay: GPCRScan assay: inhibition of KOR; parameters: radioligand conc. used [nm] 0.6 – 1.2, parental cells stable HEK
[17] = molecular target: Serine/threonine-protein kinase Nek4 (Homo sapiens) (UniProt P51957); assay: Inhibition of NEK4(h) at 10.0 µM in the Eurofins Kinase panel; settings: Compound concentration 10.0 uM
[18] = molecular target: T1, Alpha-1A adrenergic receptor (Homo sapiens) (UniProt P35348); settings: Compound concentration 10.0 uM
T1 sequence (whole entry): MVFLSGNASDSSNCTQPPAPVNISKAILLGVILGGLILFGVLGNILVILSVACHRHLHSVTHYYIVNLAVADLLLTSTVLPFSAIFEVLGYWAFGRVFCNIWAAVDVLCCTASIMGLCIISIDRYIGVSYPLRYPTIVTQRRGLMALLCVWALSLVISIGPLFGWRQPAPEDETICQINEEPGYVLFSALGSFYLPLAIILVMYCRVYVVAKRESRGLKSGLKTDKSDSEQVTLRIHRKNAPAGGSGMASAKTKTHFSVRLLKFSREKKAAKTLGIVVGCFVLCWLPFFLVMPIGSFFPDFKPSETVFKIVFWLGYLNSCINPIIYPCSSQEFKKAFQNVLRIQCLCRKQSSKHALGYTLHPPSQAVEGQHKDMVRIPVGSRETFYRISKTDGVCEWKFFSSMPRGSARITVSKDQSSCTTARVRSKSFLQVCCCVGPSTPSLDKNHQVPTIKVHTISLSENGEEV

[19] = molecular target: Cholecystokinin receptor type A (Homo sapiens) (UniProt P32238); assay: Inhibition of Cholecystokinin CCK1 (CCKA) at 10 µM in the Eurofins-Panlabs radioligand binding assay (Eurofins_assay_218020); settings: Compound concentration 10.0 uM
[20] = molecular target: C-C chemokine receptor type 4 (Homo sapiens) (UniProt P51679); assay: Inhibition of Chemokine CCR4 at 10 µM in the Eurofins-Panlabs radioligand binding assay (Eurofins_assay_217660); settings: Compound concentration 10.0 uM
[21] = molecular target: T2, D(4) dopamine receptor (Homo sapiens) (UniProt P21917); assay: Inhibition of Dopamine D4.2 at 10 µM in the Eurofins-Panlabs radioligand binding assay (Eurofins_assay_219900); parameters: ligand concentration 0.5 nM; settings: Compound concentration 10.0 uM
T2 sequence (whole entry): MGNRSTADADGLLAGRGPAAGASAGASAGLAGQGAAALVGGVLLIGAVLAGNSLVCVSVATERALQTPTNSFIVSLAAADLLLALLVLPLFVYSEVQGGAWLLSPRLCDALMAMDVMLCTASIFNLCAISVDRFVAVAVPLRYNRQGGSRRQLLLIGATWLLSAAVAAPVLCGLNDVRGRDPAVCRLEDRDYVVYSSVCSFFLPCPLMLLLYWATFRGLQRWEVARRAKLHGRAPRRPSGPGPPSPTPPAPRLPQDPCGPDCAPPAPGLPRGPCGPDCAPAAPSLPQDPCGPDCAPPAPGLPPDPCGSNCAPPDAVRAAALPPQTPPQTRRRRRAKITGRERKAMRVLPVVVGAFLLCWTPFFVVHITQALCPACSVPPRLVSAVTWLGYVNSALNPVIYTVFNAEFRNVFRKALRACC

[22] = molecular target: C-X-C chemokine receptor type 2 (Homo sapiens) (UniProt P25025); assay: Inhibition of Chemokine CXCR2 (IL-8RB) at 10 µM in the Eurofins-Panlabs radioligand binding assay (Eurofins_assay_244500); settings: Compound concentration 10.0 uM
[23] = molecular target: Epidermal growth factor receptor (Homo sapiens) (UniProt P00533); assay: Inhibition of Epidermal Growth Factor (EGF) at 10 µM in the Eurofins-Panlabs radioligand binding assay (Eurofins_assay_225510); settings: Compound concentration 10.0 uM
[24] = molecular target: D(1A) dopamine receptor (Homo sapiens) (UniProt P21728); settings: Compound concentration 10.0 uM
Sequence of D(1A) dopamine receptor (Homo sapiens) (P21728 whole entry): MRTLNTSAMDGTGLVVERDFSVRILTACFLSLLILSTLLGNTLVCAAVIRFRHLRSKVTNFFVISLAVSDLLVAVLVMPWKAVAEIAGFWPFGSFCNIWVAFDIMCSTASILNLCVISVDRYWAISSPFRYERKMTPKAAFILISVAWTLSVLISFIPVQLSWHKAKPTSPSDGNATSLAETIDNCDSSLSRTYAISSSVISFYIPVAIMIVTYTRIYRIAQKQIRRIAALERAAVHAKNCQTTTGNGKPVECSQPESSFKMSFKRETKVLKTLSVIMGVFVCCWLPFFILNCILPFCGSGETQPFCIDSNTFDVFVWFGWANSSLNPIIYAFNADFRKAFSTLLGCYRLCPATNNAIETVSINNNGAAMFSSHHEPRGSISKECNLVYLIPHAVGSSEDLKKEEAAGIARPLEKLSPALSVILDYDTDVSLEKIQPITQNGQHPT

Sequence of Kappa-type opioid receptor (P41145 whole entry): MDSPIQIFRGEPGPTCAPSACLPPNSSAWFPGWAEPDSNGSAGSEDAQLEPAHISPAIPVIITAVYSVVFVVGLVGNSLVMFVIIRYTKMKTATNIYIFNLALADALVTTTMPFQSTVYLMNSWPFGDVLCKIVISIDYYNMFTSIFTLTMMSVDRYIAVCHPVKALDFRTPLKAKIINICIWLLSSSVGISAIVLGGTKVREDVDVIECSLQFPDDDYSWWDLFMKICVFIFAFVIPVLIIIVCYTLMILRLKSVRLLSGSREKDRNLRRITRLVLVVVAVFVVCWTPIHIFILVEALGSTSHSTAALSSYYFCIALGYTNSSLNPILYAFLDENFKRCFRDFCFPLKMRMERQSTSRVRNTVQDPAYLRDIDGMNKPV
Sequence of Epidermal growth factor receptor (Homo sapiens) (P00533 whole entry): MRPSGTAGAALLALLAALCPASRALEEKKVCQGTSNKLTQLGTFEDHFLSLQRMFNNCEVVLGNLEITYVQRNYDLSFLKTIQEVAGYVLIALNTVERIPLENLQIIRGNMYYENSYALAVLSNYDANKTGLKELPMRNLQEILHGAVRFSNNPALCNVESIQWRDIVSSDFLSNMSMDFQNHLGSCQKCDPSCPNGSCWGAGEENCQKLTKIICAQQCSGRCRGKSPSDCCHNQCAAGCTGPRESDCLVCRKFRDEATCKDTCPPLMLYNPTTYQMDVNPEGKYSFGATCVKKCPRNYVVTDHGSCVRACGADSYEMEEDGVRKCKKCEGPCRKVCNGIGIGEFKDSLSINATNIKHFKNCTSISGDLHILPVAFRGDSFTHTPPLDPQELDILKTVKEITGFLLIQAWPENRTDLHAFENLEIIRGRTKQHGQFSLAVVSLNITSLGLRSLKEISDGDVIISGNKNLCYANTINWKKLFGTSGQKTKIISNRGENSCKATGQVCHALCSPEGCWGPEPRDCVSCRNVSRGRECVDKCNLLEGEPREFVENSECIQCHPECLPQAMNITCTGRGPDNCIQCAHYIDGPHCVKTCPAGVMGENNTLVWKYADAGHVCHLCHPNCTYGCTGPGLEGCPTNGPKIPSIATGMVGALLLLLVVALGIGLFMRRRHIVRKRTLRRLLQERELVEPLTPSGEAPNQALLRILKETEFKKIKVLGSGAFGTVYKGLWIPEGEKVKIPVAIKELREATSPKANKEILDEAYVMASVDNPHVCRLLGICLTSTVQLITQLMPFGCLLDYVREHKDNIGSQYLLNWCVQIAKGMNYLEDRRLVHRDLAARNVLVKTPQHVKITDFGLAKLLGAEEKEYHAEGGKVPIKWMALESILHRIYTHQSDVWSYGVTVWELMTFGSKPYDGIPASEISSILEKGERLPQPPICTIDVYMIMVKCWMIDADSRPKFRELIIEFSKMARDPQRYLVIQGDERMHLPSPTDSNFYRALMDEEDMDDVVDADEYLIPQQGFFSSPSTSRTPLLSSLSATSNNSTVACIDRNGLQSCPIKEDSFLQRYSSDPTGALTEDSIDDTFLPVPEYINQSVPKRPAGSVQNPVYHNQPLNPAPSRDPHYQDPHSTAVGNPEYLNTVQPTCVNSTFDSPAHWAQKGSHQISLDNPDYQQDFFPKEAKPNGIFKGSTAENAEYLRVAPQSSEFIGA
Sequence of Cholecystokinin receptor type A (Homo sapiens) (P32238 whole entry): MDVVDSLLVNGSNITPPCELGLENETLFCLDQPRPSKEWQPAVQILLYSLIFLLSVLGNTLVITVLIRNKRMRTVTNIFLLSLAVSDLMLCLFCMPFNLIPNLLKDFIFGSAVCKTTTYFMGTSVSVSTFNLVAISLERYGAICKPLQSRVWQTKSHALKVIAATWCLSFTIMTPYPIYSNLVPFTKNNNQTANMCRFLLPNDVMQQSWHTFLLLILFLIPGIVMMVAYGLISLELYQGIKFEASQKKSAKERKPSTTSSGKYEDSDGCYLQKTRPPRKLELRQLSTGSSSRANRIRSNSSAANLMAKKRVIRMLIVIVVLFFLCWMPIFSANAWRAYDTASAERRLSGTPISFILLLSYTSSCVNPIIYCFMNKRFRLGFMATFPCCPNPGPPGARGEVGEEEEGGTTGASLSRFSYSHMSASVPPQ
Sequence of Hepatocyte growth factor receptor (Homo sapiens) (P08581 whole entry): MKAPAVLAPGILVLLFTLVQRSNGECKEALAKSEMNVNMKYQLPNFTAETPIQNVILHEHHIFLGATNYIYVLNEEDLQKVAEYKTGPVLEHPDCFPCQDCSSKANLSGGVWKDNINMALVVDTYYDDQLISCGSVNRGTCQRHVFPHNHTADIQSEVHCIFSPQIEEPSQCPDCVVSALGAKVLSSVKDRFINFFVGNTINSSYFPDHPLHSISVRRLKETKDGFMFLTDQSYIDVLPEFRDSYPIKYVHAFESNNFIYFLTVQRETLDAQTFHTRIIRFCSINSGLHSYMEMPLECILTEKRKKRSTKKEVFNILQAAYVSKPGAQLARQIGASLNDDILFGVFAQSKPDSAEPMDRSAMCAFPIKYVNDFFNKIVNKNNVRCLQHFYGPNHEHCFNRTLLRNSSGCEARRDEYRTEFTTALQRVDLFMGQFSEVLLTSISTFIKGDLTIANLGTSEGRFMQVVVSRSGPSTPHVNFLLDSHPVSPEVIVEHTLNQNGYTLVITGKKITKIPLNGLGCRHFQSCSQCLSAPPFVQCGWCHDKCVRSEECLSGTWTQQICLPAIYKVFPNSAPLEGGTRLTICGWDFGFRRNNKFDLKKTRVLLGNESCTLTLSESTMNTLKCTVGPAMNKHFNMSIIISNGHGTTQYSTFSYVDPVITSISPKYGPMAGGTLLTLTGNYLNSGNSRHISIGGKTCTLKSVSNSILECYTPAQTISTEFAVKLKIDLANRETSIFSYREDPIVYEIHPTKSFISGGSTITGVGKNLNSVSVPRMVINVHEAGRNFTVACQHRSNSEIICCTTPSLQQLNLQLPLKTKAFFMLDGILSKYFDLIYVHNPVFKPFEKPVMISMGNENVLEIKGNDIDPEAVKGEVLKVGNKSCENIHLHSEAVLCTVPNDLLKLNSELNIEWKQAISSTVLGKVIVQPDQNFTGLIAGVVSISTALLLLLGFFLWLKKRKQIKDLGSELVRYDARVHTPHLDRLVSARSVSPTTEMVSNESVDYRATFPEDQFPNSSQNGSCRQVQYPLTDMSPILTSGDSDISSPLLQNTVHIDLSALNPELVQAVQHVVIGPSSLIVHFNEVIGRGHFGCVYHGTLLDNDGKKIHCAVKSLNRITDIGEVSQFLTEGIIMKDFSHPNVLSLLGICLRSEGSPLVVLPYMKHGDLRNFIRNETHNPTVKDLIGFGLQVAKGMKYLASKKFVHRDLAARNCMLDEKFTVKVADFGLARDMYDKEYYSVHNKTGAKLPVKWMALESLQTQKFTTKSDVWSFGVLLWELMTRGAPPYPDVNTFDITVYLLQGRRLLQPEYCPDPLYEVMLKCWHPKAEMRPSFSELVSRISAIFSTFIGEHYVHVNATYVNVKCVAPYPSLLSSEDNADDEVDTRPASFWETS
Sequence of RAC-alpha serine/threonine-protein kinase (Homo sapiens) (P31749 whole entry): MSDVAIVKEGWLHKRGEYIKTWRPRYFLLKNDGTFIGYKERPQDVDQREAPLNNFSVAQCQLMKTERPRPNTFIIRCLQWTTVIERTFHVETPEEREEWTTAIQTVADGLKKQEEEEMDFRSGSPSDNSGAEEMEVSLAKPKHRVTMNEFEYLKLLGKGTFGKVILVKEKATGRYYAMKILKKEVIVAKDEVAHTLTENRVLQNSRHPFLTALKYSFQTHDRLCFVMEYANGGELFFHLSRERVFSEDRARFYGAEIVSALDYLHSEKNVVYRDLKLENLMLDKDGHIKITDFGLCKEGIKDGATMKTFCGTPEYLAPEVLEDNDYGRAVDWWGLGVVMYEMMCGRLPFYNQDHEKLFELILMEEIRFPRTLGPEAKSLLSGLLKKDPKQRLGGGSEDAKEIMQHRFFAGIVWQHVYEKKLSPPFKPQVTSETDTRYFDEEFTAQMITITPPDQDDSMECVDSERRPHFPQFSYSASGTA
Sequence of C-X-C chemokine receptor type 2 (Homo sapiens) (P25025 whole entry): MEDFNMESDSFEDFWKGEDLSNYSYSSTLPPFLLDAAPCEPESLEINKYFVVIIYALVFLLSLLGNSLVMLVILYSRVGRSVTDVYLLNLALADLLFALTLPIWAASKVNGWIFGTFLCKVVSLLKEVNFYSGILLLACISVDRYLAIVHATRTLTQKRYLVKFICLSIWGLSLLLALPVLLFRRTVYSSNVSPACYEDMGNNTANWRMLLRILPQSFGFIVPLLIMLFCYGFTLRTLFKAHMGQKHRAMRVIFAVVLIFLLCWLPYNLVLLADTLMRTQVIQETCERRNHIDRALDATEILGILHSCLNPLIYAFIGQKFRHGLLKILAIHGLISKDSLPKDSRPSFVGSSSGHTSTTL
Sequence of B1 bradykinin receptor (Homo sapiens) (P46663 whole entry): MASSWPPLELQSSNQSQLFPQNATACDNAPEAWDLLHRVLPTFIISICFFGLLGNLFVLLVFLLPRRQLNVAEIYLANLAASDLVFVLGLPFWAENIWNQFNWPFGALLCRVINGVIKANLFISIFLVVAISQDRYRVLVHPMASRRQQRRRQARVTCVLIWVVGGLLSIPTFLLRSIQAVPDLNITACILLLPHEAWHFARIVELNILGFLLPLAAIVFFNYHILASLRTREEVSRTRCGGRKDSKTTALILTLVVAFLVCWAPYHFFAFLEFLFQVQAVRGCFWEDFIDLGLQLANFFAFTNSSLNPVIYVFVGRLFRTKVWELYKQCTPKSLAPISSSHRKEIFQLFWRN

inhibition [1]: 2.09%
inhibition [2]: -0.44%
inhibition [3]: -7.62%
inhibition [4]: 25%
inhibition [5]: -7.91%
inhibition [6]: -7.12%
inhibition [7]: 19%
inhibition [8]: -3%
inhibition [9]: -7.81%
inhibition [10]: -3.84%
inhibition (Rattus norvegicus): -0.38%
inhibition (Vasopressin V2 receptor): 29%
Structure (SMILES): O=c1n(Cc2cncn2-c2cccc(Cl)c2)nc(-c2ccc(Cl)cc2)n1C[C@H](O)C(F)(F)F

Structure (SMILES): C[C@H](O)c1nc(Cn2nc(-c3ccc(Cl)cc3)n(C[C@H](O)C(F)(F)F)c2=O)nn1-c1cccc(Cl)c1 [PECAVAPTAN]
inhibition [11]: -2.1%
inhibition at 60 min, 10 µM [12]: 42% (not active)
inhibition [13]: -3.88%
inhibition [14]: 15%
inhibition [15]: 16%
Ki ([16]; read-out: Ki): 2170 nM
Ki ([16]; read-out: pKi (converted)): 2140 nM
inhibition [17]: 13.1%
inhibition [18]: -2.04%
inhibition [19]: 15%
inhibition [20]: -2%
inhibition [21]: 3%
inhibition [22]: -6%
inhibition [23]: 14%
inhibition [24]: -6.55%
